Data: paper PMC3748743 (Analytical chemistry, 2013)

Target: BoNT/A (Clostridium botulinum, UniProt P0DPI1)
Type: biochemical

Chain of BoNT/A (P0DPI1 whole entry, looked up): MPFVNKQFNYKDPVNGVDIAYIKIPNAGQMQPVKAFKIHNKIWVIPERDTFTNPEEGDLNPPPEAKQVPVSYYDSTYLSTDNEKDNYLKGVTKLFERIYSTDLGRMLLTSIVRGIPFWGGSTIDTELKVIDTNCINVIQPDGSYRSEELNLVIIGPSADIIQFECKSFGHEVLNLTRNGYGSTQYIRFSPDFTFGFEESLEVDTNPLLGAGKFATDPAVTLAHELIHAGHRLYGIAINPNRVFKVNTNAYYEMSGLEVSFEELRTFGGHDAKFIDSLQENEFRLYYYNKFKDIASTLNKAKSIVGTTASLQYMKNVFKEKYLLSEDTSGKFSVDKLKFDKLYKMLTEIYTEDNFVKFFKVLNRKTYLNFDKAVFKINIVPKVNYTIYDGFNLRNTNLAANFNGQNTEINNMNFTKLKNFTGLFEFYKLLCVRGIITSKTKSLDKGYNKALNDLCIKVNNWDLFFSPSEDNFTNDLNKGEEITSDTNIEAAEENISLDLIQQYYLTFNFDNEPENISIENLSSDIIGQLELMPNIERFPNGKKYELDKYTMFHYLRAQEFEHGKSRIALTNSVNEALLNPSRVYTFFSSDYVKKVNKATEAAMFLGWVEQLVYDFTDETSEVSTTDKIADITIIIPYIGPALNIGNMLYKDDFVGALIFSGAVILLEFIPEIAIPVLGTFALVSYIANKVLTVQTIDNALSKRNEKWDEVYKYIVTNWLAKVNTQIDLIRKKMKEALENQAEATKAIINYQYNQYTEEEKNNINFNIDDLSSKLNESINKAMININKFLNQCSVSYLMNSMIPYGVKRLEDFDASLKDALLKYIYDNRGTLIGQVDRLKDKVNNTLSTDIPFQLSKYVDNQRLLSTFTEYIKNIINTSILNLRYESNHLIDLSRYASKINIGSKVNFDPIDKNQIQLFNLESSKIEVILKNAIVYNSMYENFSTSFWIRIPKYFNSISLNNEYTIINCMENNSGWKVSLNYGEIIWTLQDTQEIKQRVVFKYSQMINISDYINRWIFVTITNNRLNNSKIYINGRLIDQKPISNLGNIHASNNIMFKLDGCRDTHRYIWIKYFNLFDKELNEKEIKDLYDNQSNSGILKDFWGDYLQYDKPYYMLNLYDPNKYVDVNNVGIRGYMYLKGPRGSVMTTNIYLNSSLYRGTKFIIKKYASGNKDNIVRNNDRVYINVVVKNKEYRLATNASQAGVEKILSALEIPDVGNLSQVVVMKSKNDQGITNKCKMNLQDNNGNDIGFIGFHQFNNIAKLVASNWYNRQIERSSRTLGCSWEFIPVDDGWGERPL

TPEN
Effect on fluorescent signal of BoNT/A ALISSA: significant suppression of fluorescent signal
